Reference: publication PMC3066212, “Functional Divergence among Silkworm Antimicrobial Peptide Paralogs by the Activities of Recombinant Proteins and the Induced Expression Profiles” (PLoS ONE, 2011)

Legend:
S. aureus = assay: Ultrasensitive radial diffusion; type: cell-based, Staphylococcus aureus; conditions: 5 µmol/L, 10 µL, 37°C 24 h (Fig. 3)
Experimental: Figure 3 The antimicrobial spectrum of paralogs among each AMP gene family. The following microbes were used to test antimicrobial activities: Gram-positive bacteria: S. aureus (Sa), B. bombysepticus (Bb), B. subtilis (Bs), B. thuringiensis (Bt), B. thuringiensis subsp. galleriae (Btsg); Gram-negative bacteria: E. coli (Ec), S. marcescens (Sm), P. aeruginosa (Pa), X. pv. campestris (Xpc), R. dolaanacearum (Rd). Each sample (5 µmol/L, 10 µL) was dropped into the 2.7 mm pore on LB-medium plates and incubated at 37°C for 24 h as shown in Figure S3 for moricin family. The measure unit is millimeter (mm). […] Differences were significant at *P<0.01 among each recombinant AMP family.
B. mori strain Dazao was from the Sericulture & Agri-Food Research Institute, Guangdong Academy of Agricultural Sciences, China. E. coli Rosetta™(DE3) strain was used to express recombinant AMPs. […]
Antimicrobial activity of purified expression products was assayed using the ultrasensitive radial diffusion method and the MICs method seeded with Gram-negative or Gram-positive bacteria. […] The size of the clear area around the bacteria was measured, as shown in Figure S3 for the moricin family. […] Absorbance at 595 nm was measured and was repeated three times, and the MICs determined when the average absorbance was equal to the control sample.

X. pv. campestris = assay: Ultrasensitive radial diffusion; type: cell-based, Xanthomons pv. campestris; conditions: 5 µmol/L, 10 µL, 37°C 24 h (Fig. 3)
[1] = test system: ten tested bacteria (five Gram-positive, five Gram-negative); assay: Ultrasensitive radial diffusion, antimicrobial spectrum; type: cell-based; conditions: 5 µmol/L, 10 µL in 2.7 mm pore on LB-medium plates, 37°C 24 h, n = 3 (Fig. 3)
R. dolaanacearum = type: cell-based, Ralstonia dolaanacearum

| Substance | antimicrobial activity against S. aureus (S. aureus) | antimicrobial activity against X. pv. campestris (X. pv. campestris) | antimicrobial spectrum among the ten tested bacteria [1] | Minimal growth inhibition concentration (MIC), R. dolaanacearum (R. dolaanacearum) |
| --- | --- | --- | --- | --- |
| MNFAKILSFVFALVLALSMTSAAPEPRWKIFKKIEKMGRNIRDGIVKAGPAIEVLGSAKAIGK [BmcecB6, recombinant silkworm cecropin paralog representing B subtype, two extra N-terminal residues (Ala-Met)] | not inhibited | not inhibited | eight of ten tested bacteria | – |
| MNILKLFLVFMVAMSLVSCSTAAPAKIP--IKAIKTVGKAVGKGLRAINIASTANDVFNFLKPKKRKH [Bmmor, recombinant silkworm moricin, two extra N-terminal residues (Ala-Met)] | – | – | nine of ten tested bacteria | 1.25 µM |
| MNFVKILCVVLALMLALSMASAALEPKRKVFKIIEKIGRNVRGGVITAGPAVVVVGQAASVGM [BmcecC, recombinant silkworm cecropin paralog, C subtype, two extra N-terminal residues (Ala-Met)] | – | – | no ability to inhibit the growth | – |
| MNFVRILSFVFALVLALGAVSAAPEPRWKLFKKIEKVGRNVRDGLIKAGPAIAVIGQAKSLGK [BmcecA1, recombinant silkworm cecropin paralog, A subtype, EK-digested, two extra N-terminal residues (Ala-Met)] | – | – | five of ten tested bacteria | – |
| MDFLKYFIVVLVALSLMVCSGQADPKIP--VKSLKKGGKIIAKGFKVLTAAGTAHEVYSHVRNRGNQG [BmmorLA1, recombinant silkworm moricin-like A1, two extra N-terminal residues (Ala-Met)] | – | – | – | 1.25 µM |
| MNFSRALFYVFAVFLVCASVMAAPEPRWKIFKKIEKVGQNIRDGIIKAGPAVAVVGQAATIAHGK [BmcecE, recombinant silkworm cecropin paralog, E subtype, two extra N-terminal residues (Ala-Met)] | – | – | five of ten tested bacteria | – |
